The conditions of data set [1]: cited from earlier work.
The nature of data set [2]: Stability study: degradation products by HPLC-UV. In kind it is physicochemical. As to conditions: pre-stressed sample, elevated temperature and light. Here is the method:
• nicotine release at 30 min • degradation product Pouch samples from Example 1 were stored in a plastic container with closed (but not hermetically sealed) lid at 21-22° C./60-62% RH for up to 3 months. The release of nicotine at 30 min for the pouch product stored for 1 month at 21-22° C./60-62% RH was analyzed, using the UV spectrophotometrical method described above.
Pouch samples from Example 1 were also analyzed for the detection of potential degradation products, using HPLC-UV method (Agilent 1200 series HPLC). Samples with the same excipients but without the nicotine API and samples with the nicotine API was used to identify reference (blank) peaks. A pre-stressed sample of nicotine was prepared (using elevated temperature and light) to reveal any peaks originating from heat- and light-induced degradation of nicotine. […] The obtained peaks in the chromatogram corresponds to nicotine or solvent injection peak. The chromatogram from the HPLC-UV analysis of pre-stressed sample of nicotine (FIG. 5A), which was compared to the chromatogram of nicotine bitartrate dihydrate spiked into the reference sample without API (FIG. 5B).

Like-named read-outs stand apart in the source and are kept apart here.

As for `CC1=CC(=O)NS(=O)(=O)O1` [Acesulfame K, Acesulfame potassium], the Solubility in water in data set [1] (at 20° C.) was 270 mg/ml at 20 °C. Further, in data set [1], the “Solubility in water (descriptive)” value is given as “High solubility:”.
For the compound `OC[C@@H](O)[C@@H](O)[C@H](O)[C@H](O)CO` [D-Mannitol], the Solubility in water in data set [1] (at 25° C.) was 216 mg/ml at 25 °C. In data set [1], the “Solubility in water (descriptive)” value is “Very soluble”.
Regarding `CC(C)[C@@H]1CC[C@@H](C)C[C@H]1O` [L-Menthol], the “Solubility in water (descriptive)” value in data set [1] is given as “Low soluble”.
On to `CC(O)CO` (centres unmarked) [Propylene glycol], for which the “Solubility in water (descriptive)” value in data set [1] is reported as “Soluble”.
Regarding `OC[C@@H](O)[C@H](O)[C@@H](O)CO` [Xylitol], in data set [1], the “Solubility in water (descriptive)” value is listed as “Very soluble”.
With `CN1CCCC1c1cccnc1` (centres unmarked) [nicotine], the “peaks from potential degradation products (HPLC-UV)” value in data set [2] was “No additional peaks from potential degradation products”.

These data come from patent publication US20220354840A1, “NICOTINE POUCH” (Enorama Pharma AB, priority 2019, published 2022).
